From patent US10040838B2, “CRHR2 peptide agonists and uses thereof” (JANSSEN PHARMACEUTICA NV, priority 2008, dated 2018) come the findings set out here.

In the assay the target is T1, human CRHR2 (Homo sapiens, UniProt Q13324).
T1 construct: expressed in transfected cells
T1 sequence (Q13324 1-411): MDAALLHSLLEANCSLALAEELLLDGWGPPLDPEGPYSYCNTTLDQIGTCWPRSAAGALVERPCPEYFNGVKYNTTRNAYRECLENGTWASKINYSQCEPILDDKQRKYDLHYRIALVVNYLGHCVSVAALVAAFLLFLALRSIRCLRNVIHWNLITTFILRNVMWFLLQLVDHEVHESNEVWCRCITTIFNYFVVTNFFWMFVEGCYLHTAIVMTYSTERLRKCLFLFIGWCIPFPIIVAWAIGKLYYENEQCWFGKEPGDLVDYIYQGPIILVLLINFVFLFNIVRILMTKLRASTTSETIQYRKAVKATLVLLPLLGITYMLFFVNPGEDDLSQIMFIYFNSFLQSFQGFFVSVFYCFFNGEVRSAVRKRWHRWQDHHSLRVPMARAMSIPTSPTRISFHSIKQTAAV
The assay is described as follows: cAMP assay in h-CRHR2 transfected SK-N-MC cells. In kind it is cell-based. The following applies: Table 13; h-SCP control pA50 minus test compound pA50 within same assay batch. As to the method:
The concentration required for 50% maximum effect (A50) was 0.4 nM.
Human CRHR1 (accession number X72304) or CRHR2 (accession number U34587) were cloned into pcDNA3.1/Zeo expression vector and stably transfected into SK-N-MC cells by electroporation. Cells were maintained in MEM w/Earl's Salt with 10% FBS, 50 I.U. penicillin, 50 μg/ml streptomycin, 2 mM L-glutamine, 1 mM sodium pyruvate and 0.1 mM nonessential amino acids, 600 μg/ml G418. Cells were grown at 37° C. in 5% CO2.
Cells were plated in 96-well tissue culture dishes (Biocoat from BD Biosciences) overnight at 50,000 cell/well. Cells were washed with PBS then resuspended in DMEM F-12 without phenol red, containing 10 μM isobutylmethylxanthine (IBMX). Cells were incubated with the peptides at concentrations ranging from 1 pM to 10 μM for 60 min at 37° Celsius. […] Forskolin (10 μM), a direct stimulant of adenylate cyclase, was used as positive control. The assays were stopped by the addition of 0.5 M HCl and mixing by orbital rotation for 2 h at 4° Celsius.
To assess the activity of the inventive peptide at the CRHR2, an intracellular cAMP measurement test using a Flash plate radioactive assay (Catalog No. Cus56088; Perkin Elmer, MA, U.S.A.) was employed.
Transfected SK-N-MC cells were plated in 96-well Biocoat tissue culture dishes (BD Biosciences, San Jose, Calif., U.S.A) overnight at 50,000 cell/well. Cells were first washed with PBS and then suspended with DMEM/F-12 without phenol red, containing […]. Suspended cells were transferred into a 96-well flash plate coated with scintillant fluid. Cells were incubated with peptides ranging from […], for 60 min, at 37° Celsius. Forskolin at 10 μM was used as positive control. After ligand stimulation, cells were lysed by the addition of 0.5M HCl and mixed by orbital rotation for 2 h at 4° Celsius in order to release intracellular cAMP into the media.
Media containing released intracellular cAMP was transferred to a 96-well flash plate coated with scintillant fluid containing an anti-cAMP antibody. In this assay, intracellular cAMP competes with ^125I-labeled cAMP binding to the antibody. To generate a standard curve, cAMP ranging from 2.5 to 250 pmoles/ml was included in the experiment. [^125I]-cAMP was measured on a TopCount scintillation counter (Perkin Elmer, MA, U.S.A).
Individual agonist concentration-response curve data were fitted to the Hill equation, see formula below, using GraphPad Prism (Graphpad Software, La Jolla, Calif., U.S.A.), to provide estimates of agonist concentration needed to generate one-half maximal response (A50), and the maximal asymptote (α) and Hill slope (nH) parameters. In this equation, [A] is the agonist concentration and E is the measured effect:
For display purposes the mean fitted parameter estimates were used to generate a single E/[A] curve shown superimposed on the mean experimental data. Potency estimates for agonists, pA50, are expressed as the negative logarithm of the midpoint of each curve and listed with their standard error of measurement (SEM). Logarithm base 10 of the agonist dose ratio (Log DR) values were calculated by subtraction of the test compound pA50 value from the corresponding h-SCP (SEQ ID NO:1) control pA50 value within the same assay batch. The SEM values of the Log DR values are given by the square root of the sum of the squared SEM values of the h-SCP (SEQ ID NO:1) control and test compound pA50 values.
Human and rat peptides (see Table 10) were used on the stimulation of h-CRHR1 or h-CRHR2 transfected SK-N-MC cells in the cAMP flash plate assay. Peptides were incubated for 1 hr at 37° Celsius. Curves were calculated using non-linear regression sigmoidal concentration-response analysis calculation in GraphPad Prism. The so obtained pA50 values are shown in Table 11 in addition to literature values. […]
In general terms: cAMP levels reflect the balance of adenylyl cyclase and phosphodiesterase activity.

Residues, ends and D or L forms follow the SMILES beside them. *: point of attachment. Succinimide(1-Et,3-yl) = CCN1C(=O)CC(*)C1=O

As to `CC[C@H](C)[C@H](NC(=O)[C@H](CC(N)=O)NC(=O)[C@H](Cc1ccccc1)NC(=O)[C@H](CC(C)C)NC(=O)[C@H](CC(C)C)NC(=O)[C@H](CC(N)=O)NC(=O)[C@H](CCSC)NC(=O)[C@@H](NC(=O)[C@H](CC(N)=O)NC(=O)[C@@H](NC(=O)[C@@H]1CCCN1C(=O)[C@@H](NC(=O)[C@H](CC(=O)O)NC(=O)[C@H](CC(C)C)NC(=O)[C@H](CO)NC(=O)[C@H](CC(C)C)NC(=O)[C@@H](NC(=O)[C@H](Cc1ccccc1)NC(=O)[C@H](CCCCN)NC(=O)[C@@H](N)[C@@H](C)O)[C@@H](C)O)C(C)C)[C@@H](C)O)[C@@H](C)CC)C(=O)N[C@@H](C)C(=O)N[C@@H](CCCCN)C(=O)N[C@@H](C)C(=O)N[C@@H](CCCCN)C(=O)N[C@@H](CC(N)=O)C(=O)N[C@@H](CC(C)C)C(=O)N[C@@H](CCCNC(=N)N)C(=O)N[C@@H](C)C(=O)N[C@@H](CCC(N)=O)C(=O)N[C@@H](C)C(=O)N[C@@H](C)C(=O)N[C@@H](C)C(=O)N[C@@H](CC(N)=O)C(=O)N[C@@H](C)C(=O)N[C@@H](Cc1c[nH]cn1)C(=O)N[C@@H](CC(C)C)C(=O)N[C@@H](CCSC)C(=O)N[C@@H](C)C(=O)N[C@@H](CCC(N)=O)C(=O)N[C@@H](CSC1CC(=O)N(CC)C1=O)C(N)=O` (stereo partly shown) [SEQ ID NO: 42, TKFTLSLDVPTNIMNLLFNIAKAKNLRAQAAANAHLMAQC(-NES)-NH2] (H-TKFTLSLDVPTNIMNLLFNIAKAKNLRAQAAANAHLMAQC(Succinimide(1-Et,3-yl))-NH2; N-terminus assumed), the “Log DR” value is on record as around 1.72.
For `CC[C@H](C)[C@H](NC(=O)[C@H](CCC(N)=O)NC(=O)[C@H](C)NC(=O)[C@H](CCSC)NC(=O)[C@H](CC(C)C)NC(=O)[C@H](CSC1CC(=O)N(CC)C1=O)NC(=O)[C@H](C)NC(=O)[C@H](CC(N)=O)NC(=O)[C@H](C)NC(=O)[C@H](C)NC(=O)[C@H](C)NC(=O)[C@H](CCC(N)=O)NC(=O)[C@H](C)NC(=O)[C@H](CCCNC(=N)N)NC(=O)[C@H](CC(C)C)NC(=O)[C@H](CC(N)=O)NC(=O)[C@H](CCCCN)NC(=O)[C@H](C)NC(=O)[C@H](CCCCN)NC(=O)[C@H](C)NC(=O)[C@@H](NC(=O)[C@H](CC(N)=O)NC(=O)[C@H](Cc1ccccc1)NC(=O)[C@H](CC(C)C)NC(=O)[C@H](CC(C)C)NC(=O)[C@H](CC(N)=O)NC(=O)[C@H](CCSC)NC(=O)[C@@H](NC(=O)[C@H](CC(N)=O)NC(=O)[C@@H](NC(=O)[C@@H]1CCCN1C(=O)[C@@H](NC(=O)[C@H](CC(=O)O)NC(=O)[C@H](CC(C)C)NC(=O)[C@H](CO)NC(=O)[C@H](CC(C)C)NC(=O)[C@@H](NC(=O)[C@H](Cc1ccccc1)NC(=O)[C@H](CCCCN)NC(=O)[C@@H](N)[C@@H](C)O)[C@@H](C)O)C(C)C)[C@@H](C)O)[C@@H](C)CC)[C@@H](C)CC)C(N)=O` (stereo partly shown) [SEQ ID NO: 43, TKFTLSLDVPTNIMNLLFNIAKAKNLRAQAAANAC(-NES) LMAQI-NH2] (H-TKFTLSLDVPTNIMNLLFNIAKAKNLRAQAAANAC(Succinimide(1-Et,3-yl))LMAQI-NH2; N-terminus assumed), the “Log DR” value is given as −0.32.
With `CC[C@H](C)[C@H](NC(=O)[C@H](CCC(N)=O)NC(=O)[C@H](C)NC(=O)[C@H](CCSC)NC(=O)[C@H](CC(C)C)NC(=O)[C@H](Cc1c[nH]cn1)NC(=O)[C@H](C)NC(=O)[C@H](CSC1CC(=O)N(CC)C1=O)NC(=O)[C@H](C)NC(=O)[C@H](C)NC(=O)[C@H](C)NC(=O)[C@H](CCC(N)=O)NC(=O)[C@H](C)NC(=O)[C@H](CCCNC(=N)N)NC(=O)[C@H](CC(C)C)NC(=O)[C@H](CC(N)=O)NC(=O)[C@H](CCCCN)NC(=O)[C@H](C)NC(=O)[C@H](CCCCN)NC(=O)[C@H](C)NC(=O)[C@@H](NC(=O)[C@H](CC(N)=O)NC(=O)[C@H](Cc1ccccc1)NC(=O)[C@H](CC(C)C)NC(=O)[C@H](CC(C)C)NC(=O)[C@H](CC(N)=O)NC(=O)[C@H](CCSC)NC(=O)[C@@H](NC(=O)[C@H](CC(N)=O)NC(=O)[C@@H](NC(=O)[C@@H]1CCCN1C(=O)[C@@H](NC(=O)[C@H](CC(=O)O)NC(=O)[C@H](CC(C)C)NC(=O)[C@H](CO)NC(=O)[C@H](CC(C)C)NC(=O)[C@@H](NC(=O)[C@H](Cc1ccccc1)NC(=O)[C@H](CCCCN)NC(=O)[C@@H](N)[C@@H](C)O)[C@@H](C)O)C(C)C)[C@@H](C)O)[C@@H](C)CC)[C@@H](C)CC)C(N)=O` (stereo partly shown) [SEQ ID NO: 44, TKFTLSLDVPTNIMNLLFNIAKAKNLRAQAAAC(-NES)AH LMAQI-NH2] (H-TKFTLSLDVPTNIMNLLFNIAKAKNLRAQAAAC(Succinimide(1-Et,3-yl))AHLMAQI-NH2; N-terminus assumed), the “Log DR” value is reported as around 1.97.
With `CC[C@H](C)[C@H](NC(=O)[C@H](CCC(N)=O)NC(=O)[C@H](C)NC(=O)[C@H](CCSC)NC(=O)[C@H](CC(C)C)NC(=O)[C@H](Cc1c[nH]cn1)NC(=O)[C@H](C)NC(=O)[C@H](CC(N)=O)NC(=O)[C@H](CSC1CC(=O)N(CC)C1=O)NC(=O)[C@H](C)NC(=O)[C@H](C)NC(=O)[C@H](CCC(N)=O)NC(=O)[C@H](C)NC(=O)[C@H](CCCNC(=N)N)NC(=O)[C@H](CC(C)C)NC(=O)[C@H](CC(N)=O)NC(=O)[C@H](CCCCN)NC(=O)[C@H](C)NC(=O)[C@H](CCCCN)NC(=O)[C@H](C)NC(=O)[C@@H](NC(=O)[C@H](CC(N)=O)NC(=O)[C@H](Cc1ccccc1)NC(=O)[C@H](CC(C)C)NC(=O)[C@H](CC(C)C)NC(=O)[C@H](CC(N)=O)NC(=O)[C@H](CCSC)NC(=O)[C@@H](NC(=O)[C@H](CC(N)=O)NC(=O)[C@@H](NC(=O)[C@@H]1CCCN1C(=O)[C@@H](NC(=O)[C@H](CC(=O)O)NC(=O)[C@H](CC(C)C)NC(=O)[C@H](CO)NC(=O)[C@H](CC(C)C)NC(=O)[C@@H](NC(=O)[C@H](Cc1ccccc1)NC(=O)[C@H](CCCCN)NC(=O)[C@@H](N)[C@@H](C)O)[C@@H](C)O)C(C)C)[C@@H](C)O)[C@@H](C)CC)[C@@H](C)CC)C(N)=O` (stereo partly shown) [SEQ ID NO: 45, TKFTLSLDVPTNIMNLLFNIAKAKNLRAQAAC(-NES)NAH LMAQI-NH2] (H-TKFTLSLDVPTNIMNLLFNIAKAKNLRAQAAC(Succinimide(1-Et,3-yl))NAHLMAQI-NH2; N-terminus assumed), the “Log DR” value is listed as −0.01.
